{"source": "patent US8481521B2", "about": "“Methods of treating cell proliferative disorders” (Rigel Pharmaceuticals, Inc., priority 2005, dated 2013)", "key": {"[1]": {"system": "MV4-11 human acute myeloid leukemia cells", "format": "in vivo", "settings": "for Hazard ratio: 40 mg/kg PO bid vs vehicle; for % Reduction from Vehicle Control, Bone Marrow / % Reduction from Vehicle Control, Peripheral blood: 40 mg/kg PO, bid daily", "description": "At the end of the acclimatization period for the animals (>3 weeks in this study), mice were pretreated with sterile filtered (using a […] syringe filter) Cyclophosphamide prepared in 0.9% sterile saline (Sigma, St Louis, Mo.) by intraperitoneal injection of 150 mg/kg/day for 2 days followed by a rest period of 72 hours prior to intravenous (i.v.) injection of leukemia cells via the lateral tail vein, as described below.\nOn day 0 of the study, mice were inoculated once by intravenous tail vein injection of 5 or 10 million human MV4-11 leukemia cells resuspended in 100 microliters of fresh media as outlined in Table 1.\nAfter mice were inoculated with human MV4-11 cells (day 0), dosing began on day 17 of the study. Mice were dosed orally (PO) twice daily (bid) for the duration of the study with either Vehicle or 40 mg/kg VII at 5 mL/kg dose volume with a minimum separation of 8 hours between doses\nThis study was designed to assess the effects of various doses of VII on tumor engraftment, disease progression, severity, and overall survival in a murine intravenous MV4-11 leukemia model using NOD-SCID immunocompromised mice as a host with cyclophosphamide pretreatment to enhance tumor engraftment.\nThis study was conducted in an effort to confirm a previous efficacy data from study, but also to determine if 5 or 10 million cell inoculations would yield similar inconsistencies in tumor cell engraftment in the bone marrow and peripheral blood or alter the resultant mortality in these mice. Since a detectable level of engraftment in some animals was observed as early as 4 weeks post tumor cell injection in pilot studies and historical efficacy data had been determined with this regimen, animals were treated orally (PO) with vehicle or R945788 calcium salt at 40 mg/kg on a twice per day (bid) schedule, every day beginning approximately 2 weeks after tumor cell injection. Animals were continued on this regimen until euthanized or until the end of the study. In this experiment, all surviving mice were terminated when mice reached approximately 5 months of age (day 83 of the study) in order to limit the affects of the spontaneous thymoma development, which can be seen in NOD-SCID mice beginning at approximately 5-6 months of age.\nOn day 0 (Aug. 12, 2005), mice were i.v. injected with human MV4-11 cells in fresh medium at 5 or 10 million cells per mouse via the lateral tail vein. By day 3 post MV4-11 cell injection (on Aug. 15, 2005), one mouse was excluded due to early death from excessive body weight loss prior to randomization or treatment, potentially due to cyclophosphamide treatment. Remaining animals were randomized into treatment groups using body weights and dosing began on day 17 post cell injection (Aug. 29, 2005). Mean body weights of groups 1-4 were 20.66±0.43, 20.23±0.41, 20.18±0.54, and 20.88±0.59, respectively. Treatment groups are outlined in Table 1:\nOverall disease severity was determined from a combination of body weight loss, clinical observations, necropsy findings, and quantitation of tumor cell engraftment in selected tissues. Mice were weighed 2-3 times weekly and percent weight change calculated. At the first indication of morbidity, hind limb paralysis with apparent wasting, severe cachexia or weight loss greater than 20%, involving lethargy, ruffled fur etc, as outlined in IACUC Protocol Rigel 6-2002 “Efficacy of Novel Chemotherapeutics in Human/Mouse Tumor Xenograft Models”, animals were removed from the study and euthanized. At sacrifice, animals were anesthetized with CO2 gas and blood was be collected by cardiocentesis. Blood from animal was transferred to K2EDTA coated Microtainer (lavendar top) tubes. Whole blood was placed indirectly on ice and processed for flow cytometric staining, as described in section below. To further assess disease severity, the location and description of palpable or suspected tumors on gross examination was carefully noted upon necropsy. […]"}, "[2]": {"system": "phosphorylated histone H3 (phH3)", "experiment": "Phosphorylated histone H3 immunohistochemistry of MV4-11 tumor xenografts", "format": "in vivo, human", "settings": "vs vehicle treated MV4-11 xenografts", "description": "Proliferation was assessed ex vivo in formalin fixed tumor sections from three randomly selected mice from this study using immunohistochemical staining of human-specific phosphorylated histone H3 (phH3) as a marker for tumor cell proliferation. Human phH3 expression was reduced in tumor sections in a dose-dependent manner following treatment with VII."}, "pErk1/2 and pStat5": {"system": "pErk1/2 and pStat5", "experiment": "Immunohistochemical staining for pErk1/2 and pStat5 in MV4-11 tumor sections", "format": "in vivo", "settings": "40 mg/kg VII, 26 days", "description": "Tumors were harvested from mice ˜2 hours following final dose of vehicle or 40 mg/kg VII."}, "[3]": {"experiment": "Conversion of prodrug to drug in microsome preparations", "format": "in vitro ADME, rat", "from_the_text": "(§1) Although phosphate-containing prodrugs suitable for oral administration are of interest, skilled artisans will appreciate that prodrugs including phosphate-containing progroups R^P can be administered via other routes of administration, as phosphatases are distributed throughout the body. […] Thus, the only requirement is that the particular phosphate-containing progroup R^P selected should be removable under the conditions of intended use."}, "[4]": {"experiment": "Stability of prodrug in rat plasma", "format": "in vitro ADME", "from_the_text": "as §1\nThe presence of Phosphatase activity in rat plasma was confirmed using p-nitrophenyl phosphate—a known substrate for phosphatase."}, "[5]": {"settings": "5 million cells, 40 mg/kg, at sacrifice, listed as VII"}}, "note": "“And” between values parts separate entries of the source, which are not always exact repeats. Equal values may be shown once. “Also recorded” adds a separate entry of the source. Read-outs that look alike come from different tables or passages of the source."}
{"smiles": "COc1cc(Nc2ncc(F)c(Nc3ccc4c(n3)N(COP(=O)(O)O)C(=O)C(C)(C)O4)n2)cc(OC)c1OC", "note": "[Compound 4, N4-(2,2-dimethyl-4-[(dihydrogenphosphonoxy)methyl]-3-oxo-5-pyrido[1,4]oxazin-6-yl)-5-fluoro-N2-(3,4,5-trimethoxyphenyl)-2,4-pyrimidinediamine]", "values": [{"measurement": "Median DOD (day of death)", "setting": "[1]; 5E6 MV4-11 cells i.v., 40 mg/kg PO bid from day 17", "result": 79, "unit": "days"}, {"measurement": "Hazard ratio", "setting": "[1]; 5E6 cells", "result": 3.5}, {"measurement": "% ILS (percent increase in life-span)", "setting": "[1]; 5E6 cells, 40 mg/kg PO bid, vs vehicle median DOD 54 days", "result": 45, "unit": "%"}, {"measurement": "animals necropsied showing visible or palpable tumors", "setting": "[1]; 5 million cells, 40 mg/kg", "result": "3 out of 11"}, {"measurement": "animals terminated by study termination", "setting": "[1]; 5 million cells, 40 mg/kg", "result": "7 of 12"}, {"measurement": "surviving mice at day 83", "setting": "[1]; 5 million cells, 40 mg/kg PO bid, group of 12", "result": 5}, {"measurement": "% Reduction from Vehicle Control, Bone Marrow", "setting": "[1]; 5 million cells", "result": 96, "unit": "%"}, {"measurement": "% Reduction from Vehicle Control, Peripheral blood", "setting": "[1]; 5 million cells", "result": 99, "unit": "%"}, {"measurement": "Bone Marrow: Mean % Tumor Cells (CD33+HLA+)", "setting": "[1]; [5]", "result": "1% and 1.03%"}, {"measurement": "Peripheral Blood: Mean % Tumor Cells (CD33+HLA+)", "setting": "[1]; [5]", "result": "0.6% and 0.59%"}, {"measurement": "Hazard ratio", "setting": "[1]; 10E6 cells", "result": 7.6}, {"measurement": "animals necropsied showing visible or palpable tumors", "setting": "[1]; 10 million cells, 40 mg/kg", "result": "7 out of 13"}, {"measurement": "animals terminated by study termination", "setting": "[1]; 10 million cells, 40 mg/kg", "result": "4 out of 13"}, {"measurement": "surviving mice at day 83", "setting": "[1]; 10 million cells, 40 mg/kg PO bid, group of 13", "result": 9}, {"measurement": "% Reduction from Vehicle Control, Bone Marrow", "setting": "[1]; 10 million cells", "result": 59, "unit": "%"}, {"measurement": "% Reduction from Vehicle Control, Peripheral blood", "setting": "[1]; 10 million cells, all samples", "result": 80, "unit": "%"}, {"measurement": "Peripheral Blood: Mean % Tumor Cells (CD33+HLA+)", "setting": "[1]; 10 million cells, 40 mg/kg, all samples", "result": 10.32, "unit": "%"}, {"measurement": "Bone Marrow: Mean % Tumor Cells (CD33+HLA+)", "setting": "[1]; 10 million cells, 40 mg/kg, at sacrifice, listed as VII", "result": "5% and 5.21%"}, {"measurement": "mice survived to Day 83", "setting": "[1]; 10 million cells, 40 mg/kg, vehicle 0%", "result": "Over 50%"}, {"measurement": "tolerability in NOD-SCID mice", "setting": "[1]; mouse, in vivo", "result": "well tolerated"}, {"measurement": "inhibition of phH3 staining", "setting": "[2]; 20 mg/kg VII", "result": 53, "unit": "%"}, {"measurement": "inhibition of phH3 staining", "setting": "[2]; 40 mg/kg VII", "result": 71, "unit": "%"}, {"measurement": "STATS and ERK1/2 phosphorylation in tumor sections", "setting": "pErk1/2 and pStat5", "result": "reduced"}, {"measurement": "conversion to drug Compound III in intestinal and hepatic microsomes", "setting": "[3]; microsomes from a different source", "result": "metabolize to the active drug Compound III; also recorded: conversion of Compound 4 to Compound III was observed"}, {"measurement": "conversion to drug Compound III in microsomal preparations", "setting": "[3]; preparations obtained from Xenotech", "result": "failed to convert"}, {"measurement": "stability in rat plasma (hydrolysis to Compound III)", "setting": "[4]", "result": "metabolize to the active drug Compound III; also recorded: unstable"}]}
